{"source": "patent US8507219B2", "about": "“Method of treating inflammation with statins” (MUSC Foundation for Research Development, priority 1997, dated 2013)", "key": {"[1]": {"system": "ceramide production in rat primary astrocytes", "experiment": "Degradation of sphingomyelin to ceramide (DAG kinase assay, HPTLC) in rat primary astrocytes", "type": "cell-based", "description": "Lipid extraction Approximately 1.0×10^6 cells were exposed to different cytokines in the presence or absence of antioxidants for different periods and lipids were extracted according to the methods described by Welsh (1996).\nQuantification of sphingomyelin by HPTLC and densitometry Sphingomyelin was separated from total lipid extracts by HPTLC (LPK-plates from Whatman Labsales, USA) as described (Ganser et al., 1988) for phospholipids with the modification, that the plate was overrun for 30 min during its development and was dried overnight in vacuum desicator. Sphingomyelin was quantitated by densitometric scanning using Imaging Densitometer (Model GS-670; Bio-Rad, USA) and software provided with the instrument by the manufacturer.\nQuantification of ceramide levels by diacylglycerol kinase assay Ceramide content was quantified essentially according to Priess et al. using diacylglycerol (DAG) kinase and [γ-^32P]ATP (Priess et al., 1986). Briefly, dried lipids were solubilized in 20 μl of an octyl β-D-glucoside/cardiolipin solution (7.5% octyl β-D-glucoside, 5 mM cardiolipin in 1 mM DTPA) by sonication in a sonicator bath. […] The labeled ceramide 1-phosphate was resolved with a solvent system consisting of methyl acetate: n-propanol:chloroform:methanol:0.25% KCl in water:acetic-acid (100:100:100:40:36:2). A standard sample of ceramide was phosphorylated under identical conditions and developed in parallel. […] Quantification of ceramide 1-phosphate was carried out by autoradiography and densitometric scanning using Imaging Densitometer (Model GS-670; Bio-Rad, USA). Values are expressed either as arbitrary units (absorbance) or as percent change.\nLipid Extraction Approximately 1.0×10^6 cells were exposed to different cytokines in the presence or absence of antioxidants for different periods, and lipids were extracted according to the methods described by Welsh (1996).\nQuantification of Sphingomyelin by High Performance TLC and Densitometry Sphingomyelin was separated from total lipid extracts by high performance TLC (LHPK plates from Whatman) as described by Ganser et al. (1988) for phospholipids with the following modification: the plate was overrun for 30 min during its development and was dried overnight in vacuum desiccator. Sphingomyelin was quantitated by densitometric scanning using Imaging Densitometer (model GS-670; Bio-Rad), and software was provided with the instrument by the manufacturer.\nQuantification of Ceramide Levels by Diacylglycerol Kinase Assay Ceramide content was quantified essentially according to Priess et al. (1986) using diacylglycerol (DAG) kinase and [γ-^32P]ATP. Briefly, dried lipids were solubilized in 20 μl of an octyl β-D-glucoside/cardiolipin solution (7.5% octyl β-D-glucoside, 5 mM cardiolipin in 1 mM DTPA) by sonication in a sonicator bath. […] The labeled ceramide-1-phosphate was resolved with a solvent system consisting of methyl acetate:n-propyl alcohol:chloroform:methanol, 0.25% KCl in water:acetic acid (100:100:100:40:36:2). A standard sample of ceramide was phosphorylated under identical conditions and developed in parallel. […] Quantification of ceramide-1-phosphate was carried out by autoradiography and densitometric scanning using Imaging Densitometer (model GS-670; Bio-Rad). Values are expressed either as arbitrary units (absorbance) or as percent change."}, "iNOS": {"system": "iNOS", "experiment": "Expression of iNOS protein (immunoblot) and mRNA (Northern) in rat primary astrocytes", "type": "cell-based", "description": "(§1) Immunoblot analysis for iNOS Following 24 h incubation in the presence or absence of stimuli by different cytokines or LPS, macrophages were scraped off, washed with Hank's buffer, and homogenized in 50 mM Tris-HCl (pH 7.4) containing protease inhibitors (1 nM PMSF, 5 μg/ml aprotinin, 5 μg/ml pepstatin A, and 5 μg/ml leupeptin). After electrophoresis the proteins were transferred onto a nitrocellulose membrane, and the iNOS band was visualized by immunoblotting with antibodies against mouse macrophage iNOS and [^125I]-labeled protein A (Singh et al., 1988).\nRNA isolation, Northern blot analysis, and reverse-transcriptase coupled polymerase chain reaction (RT-PCR) Stimulated peritoneal macrophages were taken out from culture dishes directly by adding Ultraspec-II RNA reagent (Biotecx Laboratories Inc.) and total RNA was isolated according to the manufacturer's protocol. For northern blot analyses, 20 μg of total RNA was electrophoresed on 1.2% denaturing formaldehyde-agarose gels, electrotransferred to Hybond-Nylon Membrane (Amersham) and hybridized at 68° C. with ^32P-labeled cDNA probe using Express Hyb hybridization solution (Clontech) as described by the manufacturer. […]; After hybridization filters were washed two to three times in solution I (2×SSC, 0.05% SDS) for 1 h at room temperature followed by solution II (0.1×SSC, 0.1% SDS) at 50° C. for another hour. The membranes were then dried and exposed to X-ray film (Kodak). The same filters were stripped and rehybridized with probes for GAPDH. The relative mRNA content for iNOS was measured after scanning the bands with a Biorad (Model GS-670) imaging densitometer.\nas §1, with “of” for “of stimuli by”, “stimuli, cells” for “cytokines or LPS, macrophages”, “inhibitors.” for “inhibitors (1 nM PMSF, 5 μg/ml aprotinin, 5 μg/ml pepstatin A, and 5 μg/ml leupeptin).”, “A.” for “A (Singh et al., 1988).”\nRNA isolation and Northern blot analysis Cells were taken out from culture dishes directly by adding Ultraspec-II RNA reagent (Biotecx Laboratories Inc.) and total RNA was isolated according to the manufacturer's protocol. For Northern blot analyses, 20 μg of total RNA was electrophoresed on 1.2% denaturing formaldehyde-agarose gels, electrotransferred to Hybond-Nylon Membrane (Amersham) and hybridized at 68° C. with ^32P-labeled cDNA probe using Express Hyb hybridization solution (Clontech) as described by the manufacturer. […]; After hybridization filters were washed two or three times in solution I (2×SSC, 0.05% SDS) for one hour at room temperature followed by solution II (0.1×SSC, 0.1% SDS) at 50° C. for another hour. The membranes were then dried and exposed with X-ray films (Kodak). The same filters were stripped and rehybridized with probes for GAPDH. The relative mRNA content for iNOS was measured after scanning the bands with a Biorad (Model GS-670) imaging densitometer.\nas §1, with “After a” for “Following”, “of” for “of stimuli by”, “stimuli, cells” for “cytokines or LPS, macrophages”, “mM” for “nM”, “A.” for “A (Singh et al., 1988).”\nRNA isolation and Northern blot analysis Cells were taken out from culture dishes directly by adding Ultraspec-II RNA reagent (Biotecx Laboratories Inc., Houston, Tex.), and total RNA was isolated according to the manufacturer's protocol. […]"}, "[2]": {"system": "NO production in rat resident macrophages", "experiment": "LPS-/cytokine-induced NO production (nitrite) in rat resident peritoneal macrophages", "type": "cell-based", "description": "Isolation of Rat Macrophages and Induction of NO Production Resident macrophages were obtained from rats by peritoneal lavage with sterile RPMI 1640 medium containing 1% fetal bovine serum and 100 μg/ml gentamicin (Wang et al., 1995). Cells were washed three times with RPMI 1640 at 4° C. All cell cultures were maintained at 37° C. in a humidified incubator containing 5% CO2 in air. Macrophages, at a concentration of 2×10^6/ml in RPMI 1640 medium containing L-glutamine and gentamicin, were added in volumes of 800 μl to a 35 mm plate. After 1 h, nonadherent cells were removed by washing and 800 μl of serum-free RPMI 1640 medium with various stimuli were added to the adherent cells. After 24 h incubation in 5% CO2 in air at 37° C., the culture supernatants were transferred to measure NO production (Geng et al., 1995; Wang et al., 1995).\nIsolation of rat macrophages and induction of NO production Resident macrophages were obtained from rat by peritoneal lavage with sterile RPMI 1640 medium containing 1% fetal bovine serum and 100 μg/ml gentamicin as described herein. Cells were washed three times with RPMI 1640 at 4° C. All cell cultures were maintained at 37° C. in a humidified incubator containing 5% CO2 in air. Macrophages at a concentration of 2×10^6/ml in RPMI 1640 medium containing L-glutamine and gentamicin were added in volumes of 800 μl to a 35 mm plate. After 1 h, nonadherent cells were removed by washing and 800 μl of serum-free RPMI 1640 medium with various stimuli were added to the adherent cells. After incubation in 5% CO2 in air at 37° C., culture supernatants were transferred to measure NO production.\nIsolation of rat macrophages and induction of NO production Resident macrophages were obtained from rat by peritoneal lavage with sterile RPMI 1640 medium containing 1% FBS and 100 μg/ml gentamicin. Cells were washed three times with RPMI 1640 at 4° C., and were maintained at 37° C. in a humidified incubator containing 5% CO2 in air. Macrophages at a concentration of […] in RPMI 1640 medium containing L-glutamine and gentamicin were added in volumes of 800 μl to a 35-mm plate. After 1 h, nonadherent cells were removed by washing, and 800 μl of serum-free RPMI 1640 medium with various stimuli was added to the adherent cells. After 24 h the culture supernatants were transferred to measure NO production.\nProtein was measured (Bradford, 1976)."}, "[3]": {"system": "cultured skin fibroblasts of X-ALD", "experiment": "β-oxidation of lignoceric acid in cultured skin fibroblasts of X-ALD", "type": "cell-based, human", "conditions": "etomoxir, inhibitor of mitochondrial β-oxidation"}, "[4]": {"conditions": "100 μM mevalonate, 200 μM farnesyl pyrophosphate, 10 μM ubiquinone or cholesterol"}}, "note": "“Also recorded” adds a separate entry of the source. Read-outs that look alike come from different tables or passages of the source.", "data": [{"compound": "Nc1nc[nH]n1", "note": "[ATZ, aminotriazole]", "values": [{"measurement": "increase in ceramide production", "setting": "[1]", "result": "more than 5 fold"}]}, {"compound": "Microcystin", "values": [{"measurement": "LPS-mediated induction of iNOS protein and mRNA", "setting": "iNOS", "result": "enhanced the LPS-mediated induction of iNOS protein and mRNA"}]}, {"compound": "OO", "note": "[H2O2, hydrogen peroxide]", "values": [{"measurement": "increase in ceramide production", "setting": "[1]", "result": "about 7 fold"}]}, {"compound": "COC1=C(OC)C(=O)C(C/C=C(\\C)CC/C=C(\\C)CC/C=C(\\C)CC/C=C(\\C)CC/C=C(\\C)CC/C=C(\\C)CC/C=C(\\C)CC/C=C(\\C)CC/C=C(\\C)CCC=C(C)C)=C(C)C1=O", "note": "[ubiquinone]", "values": [{"measurement": "rescue of the inhibition of iNOS expression and NF-kβ activation by lovastatin / NaPA", "setting": "iNOS; [4]", "result": "did not prevent the inhibitory effect of lovastatin and NaPA"}]}, {"compound": "CC(C)=CCC/C(C)=C/CC/C(C)=C/COP(=O)(O)OP(=O)(O)O", "note": "[FPP, farnesyl pyrophosphate]", "values": [{"measurement": "rescue of the inhibition of iNOS expression and NF-kβ activation by lovastatin / NaPA", "setting": "iNOS", "result": "substantially reversed the inhibitory effect of lovastatin"}]}, {"compound": "CC(=O)O", "note": "[acetate]", "values": [{"measurement": "degradation of sphingomyelin to ceramide / ceramide production", "setting": "[1]", "result": "had no effect on the degradation of SM to ceramide"}]}, {"compound": "CC(O)(CCO)CC(=O)O", "note": "(centres unmarked) [mevalonate]", "values": [{"measurement": "rescue of the inhibition of iNOS expression and NF-kβ activation by lovastatin / NaPA", "setting": "iNOS", "result": "substantially reversed the inhibitory effect of lovastatin"}]}, {"compound": "CCCCS(=N)(=O)CCC(N)C(=O)O", "note": "[buthione (S,R)-sulfoximine]", "values": [{"measurement": "degradation of sphingomyelin to ceramide / ceramide production", "setting": "[1]", "result": "also decreased the level of GSH and induced the production of ceramide"}]}, {"compound": "CNC(=N)NCCC[C@H](N)C(=O)O", "note": "[L-NMA, N^G-methyl-L-arginine]", "values": [{"measurement": "Nitrite", "setting": "[2]; LPS 1.0 μg/ml, 24 h, NAC 20 mM 2 h before LPS, NMA 0.1 mM, arginase 100 units/ml with LPS", "result": "15.8 ± 2.2", "unit": "nmol/mg Protein^24h"}, {"measurement": "Inhibition (%)", "setting": "[2]; of LPS (1.0 μg/ml)-induced nitrite, NAC 20 mM 2 h before, NMA 0.1 mM, arginase 100 units/ml with LPS", "result": 87, "unit": "%"}]}, {"compound": "CC(C)CCC[C@@H](C)[C@H]1CC[C@H]2[C@@H]3CC=C4C[C@@H](O)CC[C@]4(C)[C@H]3CC[C@]12C", "note": "[cholesterol]", "values": [{"measurement": "rescue of the inhibition of iNOS expression and NF-kβ activation by lovastatin / NaPA", "setting": "iNOS; [4]", "result": "did not prevent the inhibitory effect of lovastatin and NaPA"}]}, {"compound": "CCOC(=O)[C@@]1(CCCCCCOc2ccc(Cl)cc2)CO1", "note": "[Etomoxir]", "values": [{"measurement": "effect on stimulated lignoceric acid β-oxidation", "setting": "[3]", "result": "had no effect on cAMP-mediated stimulation of lignoceric acid β-oxidation; also recorded: had no effect on lovastatin- or NaPA-mediated stimulation of lignoceric acid β-oxidation"}]}, {"compound": "C[C@@]12C(=O)OC(=O)[C@]1(C)[C@H]1CC[C@@H]2O1", "note": "[cantharidin]", "values": [{"measurement": "LPS-induced NO production", "setting": "[2]; LPS 1.0 μg/ml, 24 h", "result": "inhibited the LPS-induced NO production in rat peritoneal macrophages"}, {"measurement": "LPS-mediated induction of iNOS protein and mRNA", "setting": "iNOS; LPS 1.0 μg/ml", "result": "enhanced the LPS-mediated induction of iNOS protein and mRNA"}]}]}
